Test results: PubChem BioAssay AID1963448 (Molecular Pharmacology Branch, DTP, NCI, 2024)
pIC50: −log10 of the molar value. One block for each molecule: values may come before it.

Test system: 616215-338-R-J1-PDC complex spheroid growth, % test/control
Assay: Anticancer human tumor 616215-338-R-J1-PDC patient-derived colon adenocarcinoma cell line growth inhibition [Asc]
Conditions: for pIC50: curve of first compound; for viability, T/C: stronger effect = lower value
How it was run: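 Spheroid model: tumor line + HUVEC + hMSC. Single agents and combinations; top conc. at/near clinical Cmax (10 microM if undetermined), half-log dilutions. DMSO stocks at 800-fold test concentration.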

[1] = second compound 0.1 µM, first compound 0.00316 µM
[2] = second compound 0.1 µM, first compound 0.01 µM
[3] = second compound 0.1 µM, first compound 0.0316 µM
[4] = second compound 0.1 µM, first compound 0.1 µM
[5] = second compound 0.316 µM, first compound 0.00316 µM
[6] = second compound 0.316 µM, first compound 0.01 µM
[7] = second compound 0.316 µM, first compound 0.0316 µM
[8] = second compound 0.316 µM, first compound 0.1 µM
[9] = second compound 1 µM, first compound 0.00316 µM
[10] = second compound 1 µM, first compound 0.01 µM
[11] = second compound 1 µM, first compound 0.0316 µM
[12] = second compound 1 µM, first compound 0.1 µM
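Note: spheroids exposed to agents for seven days before readout.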
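Throughout, for viability, T/C: 100% = DMSO vehicle control viability.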

pIC50 (second compound 0.1 µM): < 7.00
pIC50 (second compound 0.316 µM): < 7.00
pIC50 (second compound 1 µM): < 7.00
pIC50 (second compound 3.16 µM): > 9.50
pIC50 (second compound 10 µM): > 9.50
Structure (SMILES): NC1CCC(NC2CC2c2ccccc2)CC1 (configuration not stated) + Cc1c(S(C)(=O)=O)c(-c2cc(F)cc(N3CCN(c4ccc(NS(=O)(=O)c5ccc(NC(CCN6CCC(C(=O)OCCCP(=O)(O)O)CC6)CSc6ccccc6)c(S(=O)(=O)C(F)(F)F)c5)cc4)CC3)c2)c(-c2ccc(Cl)cc2)n1C(C)C
viability, T/C (second compound 0.1 µM, first compound 0.000316 µM): 85.7%
viability, T/C (second compound 0.1 µM, first compound 0.001 µM): 83%
viability, T/C [1]: 89%
viability, T/C [2]: 85.8%
viability, T/C [3]: 83.2%
viability, T/C [4]: 81.7%
viability, T/C (second compound 0.316 µM, first compound 0.000316 µM): 86.5%
viability, T/C (second compound 0.316 µM, first compound 0.001 µM): 79.6%
viability, T/C [5]: 78.3%
viability, T/C [6]: 78.7%
viability, T/C [7]: 79.5%
viability, T/C [8]: 79%
viability, T/C (second compound 1 µM, first compound 0.000316 µM): 73.5%
viability, T/C (second compound 1 µM, first compound 0.001 µM): 68.1%
viability, T/C [9]: 64.8%
viability, T/C [10]: 62.5%
viability, T/C [11]: 61.8%
viability, T/C [12]: 60.8%
viability, T/C (second compound 3.16 µM, first compound 0.000316 µM): 37.5%
viability, T/C (second compound 3.16 µM, first compound 0.001 µM): 40.5%
viability, T/C (second compound 3.16 µM, first compound 0.00316 µM): 36.6%
viability, T/C (second compound 3.16 µM, first compound 0.01 µM): 32%
viability, T/C (second compound 3.16 µM, first compound 0.0316 µM): 31.2%
viability, T/C (second compound 3.16 µM, first compound 0.1 µM): 34.7%
viability, T/C (second compound 10 µM, first compound 0.000316 µM): 24.5%
viability, T/C (second compound 10 µM, first compound 0.001 µM): 22.4%
viability, T/C (second compound 10 µM, first compound 0.00316 µM): 21.8%
viability, T/C (second compound 10 µM, first compound 0.01 µM): 24%
viability, T/C (second compound 10 µM, first compound 0.0316 µM): 20%
viability, T/C (second compound 10 µM, first compound 0.1 µM): 21.5%

pIC50 (second compound 0.00316 µM): 7.27
pIC50 (second compound 0.01 µM): 7.26
pIC50 (second compound 0.0316 µM): 7.33
pIC50 (second compound 0.1 µM): 7.33
pIC50 (second compound 0.316 µM): 7.28
pIC50 (second compound 1 µM): 7.39
Structure (SMILES): COc1c(OCCCN2CCOCC2)ccc2c3n(c(=NC(=O)c4cnc(N)nc4)nc12)CCN3 + CNC(C)C(=O)NC1CN(S(=O)(=O)c2cccc(S(=O)(=O)N3CCC4CCC(C(=O)NC(c5ccccc5)c5ccccc5)N4C(=O)C(NC(=O)C(C)NC)C3)c2)CCC2CCC(C(=O)NC(c3ccccc3)c3ccccc3)N2C1=O
viability, T/C (second compound 0.00316 µM, first compound 0.00316 µM): 107%
viability, T/C (second compound 0.00316 µM, first compound 0.01 µM): 83.5%
viability, T/C (second compound 0.00316 µM, first compound 0.0316 µM): 68.8%
viability, T/C (second compound 0.00316 µM, first compound 0.1 µM): 30.4%
viability, T/C (second compound 0.00316 µM, first compound 0.316 µM): 14.9%
viability, T/C (second compound 0.00316 µM, first compound 1 µM): 2.9%
viability, T/C (second compound 0.01 µM, first compound 0.00316 µM): 98.6%
viability, T/C (second compound 0.01 µM, first compound 0.01 µM): 101%
viability, T/C (second compound 0.01 µM, first compound 0.0316 µM): 64%
viability, T/C (second compound 0.01 µM, first compound 0.1 µM): 32.5%
viability, T/C (second compound 0.01 µM, first compound 0.316 µM): 9.38%
viability, T/C (second compound 0.01 µM, first compound 1 µM): 2.23%
viability, T/C (second compound 0.0316 µM, first compound 0.00316 µM): 94.1%
viability, T/C (second compound 0.0316 µM, first compound 0.01 µM): 97.8%
viability, T/C (second compound 0.0316 µM, first compound 0.0316 µM): 59.5%
viability, T/C (second compound 0.0316 µM, first compound 0.1 µM): 26.1%
viability, T/C (second compound 0.0316 µM, first compound 0.316 µM): 14.3%
viability, T/C (second compound 0.0316 µM, first compound 1 µM): 1.77%
viability, T/C [1]: 101%
viability, T/C [2]: 92.4%
viability, T/C [3]: 56.7%
viability, T/C [4]: 30.4%
viability, T/C (second compound 0.1 µM, first compound 0.316 µM): 14.1%
viability, T/C (second compound 0.1 µM, first compound 1 µM): 1.87%
viability, T/C [5]: 93.4%
viability, T/C [6]: 97.8%
viability, T/C [7]: 65.1%
viability, T/C [8]: 27.7%
viability, T/C (second compound 0.316 µM, first compound 0.316 µM): 15.3%
viability, T/C (second compound 0.316 µM, first compound 1 µM): 3.07%
viability, T/C [9]: 87.4%
viability, T/C [10]: 89.4%
viability, T/C [11]: 52.8%
viability, T/C [12]: 26.8%
viability, T/C (second compound 1 µM, first compound 0.316 µM): 16.8%
viability, T/C (second compound 1 µM, first compound 1 µM): 6.17%

pIC50 (second compound 0.03 µM): < 5.00
pIC50 (second compound 0.0949 µM): < 5.00
pIC50 (second compound 0.3 µM): 5.77
pIC50 (second compound 0.949 µM): 5.79
pIC50 (second compound 3 µM): > 7.50
Structure (SMILES): C#Cc1c(F)ccc2cc(O)cc(-c3ncc4c(N5CC6CCC(C5)N6)nc(OCC56CCCN5CC(F)C6)nc4c3F)c12 (configuration not stated) + CCN1C(C(=O)NC23CCC(C(=O)O)(CC2)CC3)C(c2cccc(Cl)c2F)C2(C(=O)Nc3cc(Cl)ccc32)C12CCCCC2
viability, T/C (second compound 0.03 µM, first compound 0.0316 µM): 91.1%
viability, T/C (second compound 0.03 µM, first compound 0.1 µM): 98.6%
viability, T/C (second compound 0.03 µM, first compound 0.316 µM): 93.5%
viability, T/C (second compound 0.03 µM, first compound 1 µM): 94.3%
viability, T/C (second compound 0.03 µM, first compound 3.16 µM): 84.4%
viability, T/C (second compound 0.03 µM, first compound 10 µM): 67.5%
viability, T/C (second compound 0.0949 µM, first compound 0.0316 µM): 84.9%
viability, T/C (second compound 0.0949 µM, first compound 0.1 µM): 85.3%
viability, T/C (second compound 0.0949 µM, first compound 0.316 µM): 91.4%
viability, T/C (second compound 0.0949 µM, first compound 1 µM): 82.5%
viability, T/C (second compound 0.0949 µM, first compound 3.16 µM): 80.3%
viability, T/C (second compound 0.0949 µM, first compound 10 µM): 68.1%
viability, T/C (second compound 0.3 µM, first compound 0.0316 µM): 56.4%
viability, T/C (second compound 0.3 µM, first compound 0.1 µM): 57.1%
viability, T/C (second compound 0.3 µM, first compound 0.316 µM): 61.6%
viability, T/C (second compound 0.3 µM, first compound 1 µM): 54%
viability, T/C (second compound 0.3 µM, first compound 3.16 µM): 44.7%
viability, T/C (second compound 0.3 µM, first compound 10 µM): 38.4%
viability, T/C (second compound 0.949 µM, first compound 0.0316 µM): 63.6%
viability, T/C (second compound 0.949 µM, first compound 0.1 µM): 66%
viability, T/C (second compound 0.949 µM, first compound 0.316 µM): 60.5%
viability, T/C (second compound 0.949 µM, first compound 1 µM): 51%
viability, T/C (second compound 0.949 µM, first compound 3.16 µM): 46.5%
viability, T/C (second compound 0.949 µM, first compound 10 µM): 30%
viability, T/C (second compound 3 µM, first compound 0.0316 µM): 36.6%
viability, T/C (second compound 3 µM, first compound 0.1 µM): 42.4%
viability, T/C (second compound 3 µM, first compound 0.316 µM): 36.1%
viability, T/C (second compound 3 µM, first compound 1 µM): 32.4%
viability, T/C (second compound 3 µM, first compound 3.16 µM): 20.1%
viability, T/C (second compound 3 µM, first compound 10 µM): 17.4%
